Laboratory results published in the kinase profiling compilation of Christmann-Franck et al. (2016).

Experiments:
Assay in all cases: radiometric filter-binding kinase assay, Kinase HotSpot
Conditions in all cases: compound 0.5 µM; ATP 10 µM
MET (human) = MET (human) (UniProt P08581)
TAOK3 (human) = TAOK3 (human) (UniProt Q9H2K8)
PAK6 (human) = PAK6 (human) (UniProt Q9NQU5)
CDC42BPB (human) = CDC42BPB (human) (UniProt Q9Y5S2)
TBK1 (human) = TBK1 (human) (UniProt Q9UHD2)
LIMK1 (human) = LIMK1 (human) (UniProt P53667)
EPHB2 (human) = EPHB2 (human) (UniProt P29323)
PAK1 (human) = PAK1 (human) (UniProt Q13153)
MUSK (human) = MUSK (human) (UniProt O15146)
AKT1 (human) = AKT1 (human) (UniProt P31749)
CSNK1A1 (human) = CSNK1A1 (human) (UniProt P48729)
GSG2 (human) = GSG2 (human) (UniProt Q8TF76)
RPS6KB2 (human) = RPS6KB2 (human) (UniProt Q9UBS0)
CDK2 CCNA2 (human) = CDK2 CCNA2 (human) (UniProt P24941+P20248)
PRKX (human) = PRKX (human) (UniProt P51817)
CDK9 CCNT1 (human) = CDK9 CCNT1 (human) (UniProt P50750+O60563)
Sequence of CDK9 CCNT1 (human) (O60563 whole entry, looked up): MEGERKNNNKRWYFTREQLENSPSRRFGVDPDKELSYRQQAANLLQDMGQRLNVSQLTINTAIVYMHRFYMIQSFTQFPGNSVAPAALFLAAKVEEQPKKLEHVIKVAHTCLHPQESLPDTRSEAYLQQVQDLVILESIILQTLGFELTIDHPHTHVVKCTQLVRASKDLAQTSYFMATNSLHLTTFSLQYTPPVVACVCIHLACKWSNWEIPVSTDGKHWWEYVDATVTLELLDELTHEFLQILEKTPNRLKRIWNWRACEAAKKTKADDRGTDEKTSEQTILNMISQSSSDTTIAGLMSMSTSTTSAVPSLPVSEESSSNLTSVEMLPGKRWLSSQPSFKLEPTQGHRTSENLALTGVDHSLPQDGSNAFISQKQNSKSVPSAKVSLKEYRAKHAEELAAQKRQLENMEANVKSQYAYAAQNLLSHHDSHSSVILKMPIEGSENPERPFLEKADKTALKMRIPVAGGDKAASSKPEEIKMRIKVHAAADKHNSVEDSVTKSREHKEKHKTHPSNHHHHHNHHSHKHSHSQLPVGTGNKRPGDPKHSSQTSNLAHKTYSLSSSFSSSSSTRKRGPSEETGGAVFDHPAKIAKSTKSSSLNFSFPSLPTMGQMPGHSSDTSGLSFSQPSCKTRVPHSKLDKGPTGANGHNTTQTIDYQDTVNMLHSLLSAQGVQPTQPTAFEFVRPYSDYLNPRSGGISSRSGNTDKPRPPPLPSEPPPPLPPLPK
Sequence of CDK9 CCNT1 (human) (P50750 whole entry, looked up): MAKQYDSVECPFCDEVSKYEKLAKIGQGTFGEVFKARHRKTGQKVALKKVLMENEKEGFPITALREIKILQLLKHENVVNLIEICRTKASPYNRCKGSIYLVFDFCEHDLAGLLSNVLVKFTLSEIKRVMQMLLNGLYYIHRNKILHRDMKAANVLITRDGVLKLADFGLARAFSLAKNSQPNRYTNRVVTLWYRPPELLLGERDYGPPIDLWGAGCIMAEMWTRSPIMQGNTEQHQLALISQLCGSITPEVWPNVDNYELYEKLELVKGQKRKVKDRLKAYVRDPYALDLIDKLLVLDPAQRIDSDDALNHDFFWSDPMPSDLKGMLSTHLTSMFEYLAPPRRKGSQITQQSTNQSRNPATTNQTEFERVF

ACVRL1 (human) = ACVRL1 (human) (UniProt P37023)
BRSK1 (human) = BRSK1 (human) (UniProt Q8TDC3)
PNCK (human) = PNCK (human) (UniProt Q6P2M8)
NTRK1 (human) = NTRK1 (human) (UniProt P04629)
AURKB (human) = AURKB (human) (UniProt Q96GD4)
MST4 (human) = MST4 (human) (UniProt Q9P289)
CSNK1G1 (human) = CSNK1G1 (human) (UniProt Q9HCP0)
MERTK (human) = MERTK (human) (UniProt Q12866)
CLK4 (human) = CLK4 (human) (UniProt Q9HAZ1)
MARK2 (human) = MARK2 (human) (UniProt Q7KZI7)
PRKCI (human) = PRKCI (human) (UniProt P41743)
TNK2 (human) = TNK2 (human) (UniProt Q07912)
NEK4 (human) = NEK4 (human) (UniProt P51957)
Sequence of NEK4 (human) (P51957 whole entry, looked up): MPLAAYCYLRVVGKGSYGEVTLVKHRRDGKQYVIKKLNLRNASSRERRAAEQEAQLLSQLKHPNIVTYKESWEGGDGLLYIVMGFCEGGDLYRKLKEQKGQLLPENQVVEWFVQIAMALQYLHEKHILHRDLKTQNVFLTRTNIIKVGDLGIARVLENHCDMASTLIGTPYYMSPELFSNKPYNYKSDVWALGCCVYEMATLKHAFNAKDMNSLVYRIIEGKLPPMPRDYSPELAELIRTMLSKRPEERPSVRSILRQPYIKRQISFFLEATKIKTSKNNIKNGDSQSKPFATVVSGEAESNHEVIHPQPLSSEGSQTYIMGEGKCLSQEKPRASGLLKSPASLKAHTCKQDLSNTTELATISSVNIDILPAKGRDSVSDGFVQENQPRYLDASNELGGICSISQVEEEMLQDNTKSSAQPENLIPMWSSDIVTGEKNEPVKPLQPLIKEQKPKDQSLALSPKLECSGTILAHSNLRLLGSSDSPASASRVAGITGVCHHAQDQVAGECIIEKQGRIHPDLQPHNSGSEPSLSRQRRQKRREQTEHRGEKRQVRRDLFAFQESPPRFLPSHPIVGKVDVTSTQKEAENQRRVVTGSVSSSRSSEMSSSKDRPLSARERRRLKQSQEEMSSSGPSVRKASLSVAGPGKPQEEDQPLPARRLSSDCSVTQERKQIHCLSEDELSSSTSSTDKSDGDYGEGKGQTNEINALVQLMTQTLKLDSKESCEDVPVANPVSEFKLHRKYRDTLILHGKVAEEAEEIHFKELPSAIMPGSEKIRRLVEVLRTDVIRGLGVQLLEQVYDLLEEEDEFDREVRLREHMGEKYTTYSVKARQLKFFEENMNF

WNK2 (human) = WNK2 (human) (UniProt Q9Y3S1)
FYN (human) = FYN (human) (UniProt P06241)
Sequence of FYN (human) (P06241 whole entry, looked up): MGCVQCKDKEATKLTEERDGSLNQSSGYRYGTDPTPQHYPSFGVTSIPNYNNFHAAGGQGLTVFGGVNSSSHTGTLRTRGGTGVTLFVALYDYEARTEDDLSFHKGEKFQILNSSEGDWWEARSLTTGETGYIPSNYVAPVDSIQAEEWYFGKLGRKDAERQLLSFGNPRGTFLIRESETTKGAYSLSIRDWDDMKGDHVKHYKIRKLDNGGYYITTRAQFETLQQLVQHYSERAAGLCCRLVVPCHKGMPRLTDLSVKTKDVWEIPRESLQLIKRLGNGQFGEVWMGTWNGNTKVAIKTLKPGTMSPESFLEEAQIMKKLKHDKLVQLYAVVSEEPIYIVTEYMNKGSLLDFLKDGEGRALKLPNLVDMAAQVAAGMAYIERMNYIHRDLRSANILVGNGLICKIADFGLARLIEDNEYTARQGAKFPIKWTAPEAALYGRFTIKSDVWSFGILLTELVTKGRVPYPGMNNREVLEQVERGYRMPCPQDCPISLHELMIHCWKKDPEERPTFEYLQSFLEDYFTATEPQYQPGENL

MAP4K5 (human) = MAP4K5 (human) (UniProt Q9Y4K4)
GSK3B (human) = GSK3B (human) (UniProt P49841)
Sequence of GSK3B (human) (P49841 whole entry, looked up): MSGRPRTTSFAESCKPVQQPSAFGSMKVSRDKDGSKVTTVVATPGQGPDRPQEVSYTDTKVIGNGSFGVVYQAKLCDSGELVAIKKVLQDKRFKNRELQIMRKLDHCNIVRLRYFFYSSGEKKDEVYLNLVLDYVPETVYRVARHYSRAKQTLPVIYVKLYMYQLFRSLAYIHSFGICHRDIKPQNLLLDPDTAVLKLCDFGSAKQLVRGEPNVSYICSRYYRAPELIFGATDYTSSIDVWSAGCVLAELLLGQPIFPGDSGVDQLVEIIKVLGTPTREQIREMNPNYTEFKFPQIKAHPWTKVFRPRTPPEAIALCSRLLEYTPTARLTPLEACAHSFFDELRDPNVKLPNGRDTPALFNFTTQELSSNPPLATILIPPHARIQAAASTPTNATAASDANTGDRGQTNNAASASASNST

PAK4 (human) = PAK4 (human) (UniProt O96013)
MATK (human) = MATK (human) (UniProt P42679)
IKBKB (human) = IKBKB (human) (UniProt O14920)
LRRK2 (human) = LRRK2 (human) (UniProt Q5S007)
CSNK2A1 (human) = CSNK2A1 (human) (UniProt P68400)
Sequence of CSNK2A1 (human) (P68400 whole entry, looked up): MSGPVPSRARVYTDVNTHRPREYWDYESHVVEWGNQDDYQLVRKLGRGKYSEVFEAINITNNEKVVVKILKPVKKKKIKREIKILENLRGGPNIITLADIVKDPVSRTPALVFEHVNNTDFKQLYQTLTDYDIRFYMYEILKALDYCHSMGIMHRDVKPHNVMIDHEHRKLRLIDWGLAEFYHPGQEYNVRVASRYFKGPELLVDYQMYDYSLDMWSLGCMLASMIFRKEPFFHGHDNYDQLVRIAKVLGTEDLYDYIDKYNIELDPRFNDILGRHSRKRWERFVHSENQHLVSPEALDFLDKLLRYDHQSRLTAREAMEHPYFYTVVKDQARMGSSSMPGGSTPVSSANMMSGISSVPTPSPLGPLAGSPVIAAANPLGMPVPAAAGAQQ

PLK1 (human) = PLK1 (human) (UniProt P53350)
STK39 (human) = STK39 (human) (UniProt Q9UEW8)
EPHA2 (human) = EPHA2 (human) (UniProt P29317)
EPHA7 (human) = EPHA7 (human) (UniProt Q15375)

Sequence of TBK1 (human) (Q9UHD2 whole entry, looked up): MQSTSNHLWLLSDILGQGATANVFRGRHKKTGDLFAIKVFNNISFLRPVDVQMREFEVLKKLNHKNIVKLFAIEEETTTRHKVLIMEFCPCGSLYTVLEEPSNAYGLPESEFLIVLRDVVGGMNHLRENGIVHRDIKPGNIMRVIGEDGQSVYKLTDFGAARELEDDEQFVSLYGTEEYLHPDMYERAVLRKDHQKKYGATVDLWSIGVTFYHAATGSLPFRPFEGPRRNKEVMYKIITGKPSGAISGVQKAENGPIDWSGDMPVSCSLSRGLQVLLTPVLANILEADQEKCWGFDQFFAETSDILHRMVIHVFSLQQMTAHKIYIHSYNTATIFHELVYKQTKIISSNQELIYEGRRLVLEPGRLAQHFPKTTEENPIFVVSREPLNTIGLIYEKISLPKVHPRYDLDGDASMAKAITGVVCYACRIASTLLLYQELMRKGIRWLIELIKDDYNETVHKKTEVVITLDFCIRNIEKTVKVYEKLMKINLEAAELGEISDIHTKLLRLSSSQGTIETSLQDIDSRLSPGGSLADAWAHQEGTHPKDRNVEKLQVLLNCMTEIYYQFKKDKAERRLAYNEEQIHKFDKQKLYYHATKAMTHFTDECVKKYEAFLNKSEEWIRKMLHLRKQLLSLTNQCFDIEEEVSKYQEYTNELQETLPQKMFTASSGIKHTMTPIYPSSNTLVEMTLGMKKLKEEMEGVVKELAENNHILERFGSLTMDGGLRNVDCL
Sequence of PAK6 (human) (Q9NQU5 whole entry, looked up): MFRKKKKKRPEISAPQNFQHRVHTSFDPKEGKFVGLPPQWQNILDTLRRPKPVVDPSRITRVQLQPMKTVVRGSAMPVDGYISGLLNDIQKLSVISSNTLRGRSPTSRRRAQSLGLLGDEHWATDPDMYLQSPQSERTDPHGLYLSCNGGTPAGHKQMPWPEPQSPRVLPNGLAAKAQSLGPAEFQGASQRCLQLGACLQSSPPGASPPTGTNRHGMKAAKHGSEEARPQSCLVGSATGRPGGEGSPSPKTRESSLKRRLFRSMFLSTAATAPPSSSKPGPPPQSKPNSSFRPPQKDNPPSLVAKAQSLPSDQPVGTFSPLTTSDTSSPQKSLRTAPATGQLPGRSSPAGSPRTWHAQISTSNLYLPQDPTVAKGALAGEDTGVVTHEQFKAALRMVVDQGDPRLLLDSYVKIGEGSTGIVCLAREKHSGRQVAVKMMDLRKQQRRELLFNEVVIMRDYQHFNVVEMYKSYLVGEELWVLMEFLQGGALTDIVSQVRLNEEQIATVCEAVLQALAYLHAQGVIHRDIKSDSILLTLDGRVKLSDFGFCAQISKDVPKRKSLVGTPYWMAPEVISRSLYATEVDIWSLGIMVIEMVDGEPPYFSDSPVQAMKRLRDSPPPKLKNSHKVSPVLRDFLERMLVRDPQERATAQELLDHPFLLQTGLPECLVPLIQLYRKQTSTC

For `N#Cc1c(NC(=O)c2cccc3ccccc23)sc2c1CCCC2`, the residual activity (MET (human)) was 109%, the residual activity (TAOK3 (human)) was 90.2% and the residual activity (PAK6 (human)) was 101%. The residual activity (CDC42BPB (human)) was 98%, the residual activity (TBK1 (human)) was 94% and the residual activity (LIMK1 (human)) was 102%. It also gave a residual activity (EPHB2 (human)) of 97.5%, a residual activity (PAK1 (human)) of 97.4% and a residual activity (MUSK (human)) of 94.8%. The residual activity (AKT1 (human)) was 101%, the residual activity (CSNK1A1 (human)) was 91.1% and the residual activity (GSG2 (human)) was 99%. The residual activity (RPS6KB2 (human)) was 100%, the residual activity (CDK2 CCNA2 (human)) was 100% and the residual activity (PRKX (human)) was 103%. The residual activity (CDK9 CCNT1 (human)) was 100%, the residual activity (ACVRL1 (human)) was 107% and the residual activity (BRSK1 (human)) was 97%. It also gave a residual activity (PNCK (human)) of 104%, a residual activity (NTRK1 (human)) of 105% and a residual activity (AURKB (human)) of 103%. For the same compound, the residual activity (MST4 (human)) was 102%, the residual activity (CSNK1G1 (human)) was 109% and the residual activity (MERTK (human)) was 97.9%. For the same compound, the residual activity (CLK4 (human)) was 92%, the residual activity (MARK2 (human)) was 105% and the residual activity (PRKCI (human)) was 95.9%. For the same compound, the residual activity (TNK2 (human)) was 95.4%, the residual activity (NEK4 (human)) was 94.6% and the residual activity (WNK2 (human)) was 109%. It also gave a residual activity (FYN (human)) of 102%, a residual activity (MAP4K5 (human)) of 93.8% and a residual activity (GSK3B (human)) of 97.5%. The residual activity (PAK4 (human)) was 95.2%, the residual activity (MATK (human)) was 92.7% and the residual activity (IKBKB (human)) was 97%. For the same compound, the residual activity (LRRK2 (human)) was 100%, the residual activity (CSNK2A1 (human)) was 101% and the residual activity (PLK1 (human)) was 96.4%. It also gave a residual activity (STK39 (human)) of 94.6%.

With `COc1cc2c(cc1OC)-c1[nH]nc(Nc3cccc(F)c3)c1C2` the residual activity (MET (human)) was 97.8%, the residual activity (TAOK3 (human)) was 91.5% and the residual activity (PAK6 (human)) was 84.8%. For the same compound, the residual activity (CDC42BPB (human)) was 99.2%, the residual activity (TBK1 (human)) was 101% and the residual activity (LIMK1 (human)) was 23.3%. It also gave a residual activity (EPHB2 (human)) of 94.8%, a residual activity (PAK1 (human)) of 96.9% and a residual activity (MUSK (human)) of 82.7%. For the same compound, the residual activity (AKT1 (human)) was 93.3%, the residual activity (GSG2 (human)) was 84.8% and the residual activity (RPS6KB2 (human)) was 100%. The residual activity (CDK2 CCNA2 (human)) was 87.5%, the residual activity (PRKX (human)) was 103% and the residual activity (CDK9 CCNT1 (human)) was 97.6%. For the same compound, the residual activity (ACVRL1 (human)) was 102%, the residual activity (BRSK1 (human)) was 89.3% and the residual activity (PNCK (human)) was 98%. The residual activity (NTRK1 (human)) was 98.8%, the residual activity (EPHA2 (human)) was 93.8% and the residual activity (AURKB (human)) was 79.2%. The residual activity (MST4 (human)) was 97%, the residual activity (CSNK1G1 (human)) was 77.8% and the residual activity (MERTK (human)) was 78.7%. For the same compound, the residual activity (CLK4 (human)) was 77.7%, the residual activity (EPHA7 (human)) was 98% and the residual activity (MARK2 (human)) was 77.2%. The residual activity (PRKCI (human)) was 95.5%, the residual activity (TNK2 (human)) was 15.1% and the residual activity (NEK4 (human)) was 101%. The residual activity (WNK2 (human)) was 104%, the residual activity (FYN (human)) was 73.4% and the residual activity (MAP4K5 (human)) was 89%. For the same compound, the residual activity (GSK3B (human)) was 96.6%, the residual activity (PAK4 (human)) was 89.9% and the residual activity (MATK (human)) was 92.1%. It also gave a residual activity (IKBKB (human)) of 98.2%, a residual activity (LRRK2 (human)) of 82.3% and a residual activity (CSNK2A1 (human)) of 96.6%. It also gave a residual activity (PLK1 (human)) of 102% and a residual activity (STK39 (human)) of 105%.

Work on `O=c1cc(N2CCOCC2)oc2c(-c3ccccc3)cccc12` yielded a residual activity (MET (human)) of 127%, a residual activity (TAOK3 (human)) of 88.2% and a residual activity (PAK6 (human)) of 115%. It also gave a residual activity (CDC42BPB (human)) of 88.4%, a residual activity (TBK1 (human)) of 94.1% and a residual activity (LIMK1 (human)) of 98.6%. It also gave a residual activity (EPHB2 (human)) of 99.8%, a residual activity (PAK1 (human)) of 97.8% and a residual activity (MUSK (human)) of 102%. For the same compound, the residual activity (AKT1 (human)) was 95.7%, the residual activity (GSG2 (human)) was 93.4% and the residual activity (RPS6KB2 (human)) was 94.9%. It also gave a residual activity (CDK2 CCNA2 (human)) of 106%, a residual activity (PRKX (human)) of 101% and a residual activity (CDK9 CCNT1 (human)) of 103%. For the same compound, the residual activity (ACVRL1 (human)) was 91.9%, the residual activity (BRSK1 (human)) was 103% and the residual activity (PNCK (human)) was 98.4%. It also gave a residual activity (NTRK1 (human)) of 95%, a residual activity (EPHA2 (human)) of 104% and a residual activity (AURKB (human)) of 99.6%. It also gave a residual activity (MST4 (human)) of 97.2%, a residual activity (CSNK1G1 (human)) of 104% and a residual activity (MERTK (human)) of 95.2%. The residual activity (CLK4 (human)) was 89.1%, the residual activity (EPHA7 (human)) was 102% and the residual activity (MARK2 (human)) was 79.2%. It also gave a residual activity (PRKCI (human)) of 99.5%, a residual activity (TNK2 (human)) of 88.7% and a residual activity (NEK4 (human)) of 95.1%. The residual activity (WNK2 (human)) was 110%, the residual activity (FYN (human)) was 100% and the residual activity (MAP4K5 (human)) was 92.2%. It also gave a residual activity (GSK3B (human)) of 96.9%, a residual activity (PAK4 (human)) of 92.8% and a residual activity (MATK (human)) of 84.6%. For the same compound, the residual activity (IKBKB (human)) was 100%, the residual activity (LRRK2 (human)) was 96.9% and the residual activity (CSNK2A1 (human)) was 64.8%. The residual activity (PLK1 (human)) was 67.1% and the residual activity (STK39 (human)) was 78.4%.

Work on `CN[C@@H]1C[C@H]2O[C@@](C)([C@@H]1OC)n1c3ccccc3c3c4c(c5c6ccccc6n2c5c31)C(=O)NC4` yielded a residual activity (MET (human)) of 32.7%, a residual activity (TBK1 (human)) of -0.455% and a residual activity (MUSK (human)) of 12.2%. For the same compound, the residual activity (AKT1 (human)) was 7.49%, the residual activity (CDK9 CCNT1 (human)) was 1.38% and the residual activity (EPHA2 (human)) was 21.3%. For the same compound, the residual activity (MST4 (human)) was 4.43%, the residual activity (CLK4 (human)) was 6.62% and the residual activity (NEK4 (human)) was 46.8%.
